This is an account of results in ChEMBL document CHEMBL4376850, “1-Benzylpyrrolidine-3-amine-based BuChE inhibitors with anti-aggregating, antioxidant and metal-chelating properties as multifunctional agents against Alzheimer's disease” (Eur J Med Chem, 2020).

Activity calls are given as the source filed them. No cut-off for these calls is given here.

The target of one assay is Beta-secretase 1 (Homo sapiens, UniProt P56817). Particulars: 50 uM.
The target of assay [1] is Amyloid-beta precursor protein (Homo sapiens) (UniProt P05067). Particulars: at 10 µM.
Chain of Amyloid-beta precursor protein (Homo sapiens) (P05067 whole entry): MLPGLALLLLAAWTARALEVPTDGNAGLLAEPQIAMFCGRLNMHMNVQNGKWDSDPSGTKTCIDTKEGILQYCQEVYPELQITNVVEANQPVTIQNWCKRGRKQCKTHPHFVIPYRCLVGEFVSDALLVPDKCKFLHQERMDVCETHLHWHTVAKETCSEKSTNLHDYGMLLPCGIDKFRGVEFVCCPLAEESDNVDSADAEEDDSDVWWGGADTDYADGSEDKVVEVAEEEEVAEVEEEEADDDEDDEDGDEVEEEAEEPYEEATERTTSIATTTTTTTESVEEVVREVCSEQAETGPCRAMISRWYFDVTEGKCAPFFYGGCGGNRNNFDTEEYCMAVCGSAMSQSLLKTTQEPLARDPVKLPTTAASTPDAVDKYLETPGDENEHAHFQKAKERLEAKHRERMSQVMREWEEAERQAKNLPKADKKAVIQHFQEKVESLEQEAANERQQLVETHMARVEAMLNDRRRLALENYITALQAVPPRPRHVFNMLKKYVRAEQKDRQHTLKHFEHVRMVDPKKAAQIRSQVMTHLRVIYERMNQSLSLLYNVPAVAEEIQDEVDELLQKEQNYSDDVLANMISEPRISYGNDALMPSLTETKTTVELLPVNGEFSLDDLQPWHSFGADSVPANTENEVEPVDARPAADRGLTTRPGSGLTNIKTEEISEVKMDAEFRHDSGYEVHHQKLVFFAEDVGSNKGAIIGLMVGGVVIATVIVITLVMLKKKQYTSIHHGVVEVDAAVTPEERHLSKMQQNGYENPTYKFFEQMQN
Description: Inhibition of amyloid beta (1 to 42) (unknown origin) aggregation at 10 uM expressed in Escherichia coli BL21 (DE3) incubated for 24 hrs by thioflavin T-based fluorometric assay relative to control
Assay [2] can be described thus: Antioxidant activity assessed as ABTS radical scavenging activity at 30 uM measured after 60 mins by spectrophotometric assay relative to control. It is filed as functional.
The nature of assay [3]: Antioxidant activity assessed as increase in total ferric ion reducing activity at 150 uM using FeCl3.H2O and TPTZ incubated for 5 mins by FRAP assay relative to control. Type of assay: functional. Set-up: scale not given: the % may be the effect or the level left.
Assay [4] can be described thus: Antioxidant activity assessed as increase in total ferric ion reducing activity at 30 uM using FeCl3.H2O and TPTZ incubated for 5 mins by FRAP assay relative to control. The arrangement: scale not given: the % may be the effect or the level left. Type of assay: functional.
Assay [5] has as its target Acetylcholinesterase (Electrophorus electricus) (UniProt O42275). The assay can be described thus: Inhibition of Electrophorus electricus AChE at 10 uM using acetylthiocholine iodide as substrate preincubated for 5 mins followed by substrate addition and measured after 5 mins by Ellman's method relative to control. Background: DTNB colorimetry detects thiols as they appear.

Assay [6] in a line: Antioxidant activity assessed as increase in total ferric ion reducing activity at 150 uM using FeCl3.H2O and TPTZ incubated for 60 mins by FRAP assay relative to control. Type of assay: functional. The arrangement: scale not given: the % may be the effect or the level left.
Assay [7] can be described thus: Antioxidant activity assessed as increase in total ferric ion reducing activity at 150 uM using FeCl3.H2O and TPTZ incubated for 30 mins by FRAP assay relative to control. It is filed as functional. Set-up: scale not given: the % may be the effect or the level left.
A short description of assay [8]: Metal chelating activity assessed as Cu2+-compound complex formation at 50 uM after 30 mins by UV-Visible spectrophotometric method.
Assay [9] in a line: Antioxidant activity assessed as increase in total ferric ion reducing activity at 75 uM using FeCl3.H2O and TPTZ incubated for 5 mins by FRAP assay relative to control. Set-up: scale not given: the % may be the effect or the level left. Type of assay: functional.
The nature of assay [10]: Antioxidant activity assessed as increase in total ferric ion reducing activity at 75 uM using FeCl3.H2O and TPTZ incubated for 30 mins by FRAP assay relative to control. Type of assay: functional. Set-up: scale not given: the % may be the effect or the level left.
Assay [11] can be described thus: Antioxidant activity assessed as increase in total ferric ion reducing activity at 75 uM using FeCl3.H2O and TPTZ incubated for 60 mins by FRAP assay relative to control. It is filed as functional. The arrangement: scale not given: the % may be the effect or the level left.
A short description of assay [12]: Antioxidant activity assessed as ABTS radical scavenging activity at 150 uM measured after 5 mins by spectrophotometric assay relative to control. Type of assay: functional.
The target of assay [13] is Microtubule-associated protein tau (Homo sapiens) (UniProt P10636). As to the kind of experiment: Inhibition of tau aggregation (unknown origin) at 10 uM expressed in Escherichia coli BL21 (DE3) incubated for 24 hrs by thioflavin T-based fluorometric assay relative to control.
Chain of Microtubule-associated protein tau (Homo sapiens) (P10636 whole entry): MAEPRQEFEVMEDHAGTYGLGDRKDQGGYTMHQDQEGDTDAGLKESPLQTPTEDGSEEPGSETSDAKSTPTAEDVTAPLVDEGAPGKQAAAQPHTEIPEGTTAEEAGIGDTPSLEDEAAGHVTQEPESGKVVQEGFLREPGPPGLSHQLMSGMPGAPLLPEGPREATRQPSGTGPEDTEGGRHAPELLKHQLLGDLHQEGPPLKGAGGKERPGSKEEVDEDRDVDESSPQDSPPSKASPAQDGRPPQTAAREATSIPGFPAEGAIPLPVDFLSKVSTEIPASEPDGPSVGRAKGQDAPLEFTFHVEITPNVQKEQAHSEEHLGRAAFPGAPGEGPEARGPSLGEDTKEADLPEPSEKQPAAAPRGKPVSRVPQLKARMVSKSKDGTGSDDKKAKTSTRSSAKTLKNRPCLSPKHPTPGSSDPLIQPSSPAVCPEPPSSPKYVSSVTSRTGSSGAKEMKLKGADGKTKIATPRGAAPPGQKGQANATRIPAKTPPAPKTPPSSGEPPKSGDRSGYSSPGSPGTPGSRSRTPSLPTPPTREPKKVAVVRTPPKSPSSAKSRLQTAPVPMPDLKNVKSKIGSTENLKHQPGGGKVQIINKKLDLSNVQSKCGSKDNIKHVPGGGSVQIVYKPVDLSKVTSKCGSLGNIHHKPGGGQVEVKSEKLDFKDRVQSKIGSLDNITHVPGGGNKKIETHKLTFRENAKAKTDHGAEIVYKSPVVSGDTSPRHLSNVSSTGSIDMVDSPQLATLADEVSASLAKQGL
Assay [14] can be described thus: Antioxidant activity assessed as increase in total ferric ion reducing activity at 30 uM using FeCl3.H2O and TPTZ incubated for 30 mins by FRAP assay relative to control. It is filed as functional. The arrangement: scale not given: the % may be the effect or the level left.
Assay [15] in a line: Antioxidant activity assessed as ABTS radical scavenging activity at 30 uM measured after 30 mins by spectrophotometric assay relative to control. It is filed as functional.
In a further assay the target is Cholinesterase (Equus caballus, UniProt P81908).
Chain of Cholinesterase (P81908 whole entry): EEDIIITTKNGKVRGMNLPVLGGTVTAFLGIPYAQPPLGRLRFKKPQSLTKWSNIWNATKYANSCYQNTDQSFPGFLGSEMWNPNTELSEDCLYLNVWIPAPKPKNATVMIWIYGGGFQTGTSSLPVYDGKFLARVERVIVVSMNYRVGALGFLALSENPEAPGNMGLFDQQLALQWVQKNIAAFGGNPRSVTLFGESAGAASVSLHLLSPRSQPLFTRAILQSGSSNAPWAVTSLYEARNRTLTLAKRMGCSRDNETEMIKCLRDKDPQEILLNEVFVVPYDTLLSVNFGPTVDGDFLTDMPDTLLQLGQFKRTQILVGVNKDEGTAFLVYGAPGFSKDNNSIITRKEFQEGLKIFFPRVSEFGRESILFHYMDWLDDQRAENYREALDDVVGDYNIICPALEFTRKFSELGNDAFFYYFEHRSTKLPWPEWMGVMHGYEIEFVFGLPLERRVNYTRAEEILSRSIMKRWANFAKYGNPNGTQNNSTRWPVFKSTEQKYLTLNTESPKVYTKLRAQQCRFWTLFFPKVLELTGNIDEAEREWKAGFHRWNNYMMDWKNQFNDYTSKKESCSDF
A short description of assay [16]: Antioxidant activity assessed as ABTS radical scavenging activity at 30 uM measured after 5 mins by spectrophotometric assay relative to control. It is filed as functional.
A short description of assay [17]: Antioxidant activity assessed as ABTS radical scavenging activity at 75 uM measured after 5 mins by spectrophotometric assay relative to control. It is filed as functional.
A short description of assay [18]: Antioxidant activity assessed as ABTS radical scavenging activity at 75 uM measured after 30 mins by spectrophotometric assay relative to control. It is filed as functional.
Assay [19] can be described thus: Antioxidant activity assessed as ABTS radical scavenging activity at 75 uM measured after 60 mins by spectrophotometric assay relative to control. It is filed as functional.
Assay [20] in a line: Antioxidant activity assessed as ABTS radical scavenging activity at 150 uM measured after 60 mins by spectrophotometric assay relative to control. It is filed as functional.
Assay [21] in a line: Antioxidant activity assessed as ABTS radical scavenging activity at 150 uM measured after 30 mins by spectrophotometric assay relative to control. Type of assay: functional.
Assay [22] is described as follows: Antioxidant activity assessed as increase in total ferric ion reducing activity at 30 uM using FeCl3.H2O and TPTZ incubated for 60 mins by FRAP assay relative to control. It is filed as functional. Set-up: scale not given: the % may be the effect or the level left.
Assay [23] has as its target Amyloid-beta precursor protein (Homo sapiens) (UniProt P05067). As to the kind of experiment: Inhibition of HFIP-pretreated amyloid beta (1 to 42) (unknown origin) aggregation at 10 uM after 48 hrs measured every 3 mins by thioflavin T-based fluorometric assay relative to control.
For assay [24], the target named is Cholinesterase (Equus caballus) (UniProt P81908). The assay can be described thus: Inhibition of equine serum BuChE at 10 uM using butyrylthiocholine chloride as substrate pre-incubated for 5 mins followed by substrate addition and measured after 5 mins by Ellman's method relative to control.
Chain of Cholinesterase (Equus caballus) (P81908 whole entry): as above

Chain of Acetylcholinesterase (Electrophorus electricus) (O42275 24-633 limits assumed): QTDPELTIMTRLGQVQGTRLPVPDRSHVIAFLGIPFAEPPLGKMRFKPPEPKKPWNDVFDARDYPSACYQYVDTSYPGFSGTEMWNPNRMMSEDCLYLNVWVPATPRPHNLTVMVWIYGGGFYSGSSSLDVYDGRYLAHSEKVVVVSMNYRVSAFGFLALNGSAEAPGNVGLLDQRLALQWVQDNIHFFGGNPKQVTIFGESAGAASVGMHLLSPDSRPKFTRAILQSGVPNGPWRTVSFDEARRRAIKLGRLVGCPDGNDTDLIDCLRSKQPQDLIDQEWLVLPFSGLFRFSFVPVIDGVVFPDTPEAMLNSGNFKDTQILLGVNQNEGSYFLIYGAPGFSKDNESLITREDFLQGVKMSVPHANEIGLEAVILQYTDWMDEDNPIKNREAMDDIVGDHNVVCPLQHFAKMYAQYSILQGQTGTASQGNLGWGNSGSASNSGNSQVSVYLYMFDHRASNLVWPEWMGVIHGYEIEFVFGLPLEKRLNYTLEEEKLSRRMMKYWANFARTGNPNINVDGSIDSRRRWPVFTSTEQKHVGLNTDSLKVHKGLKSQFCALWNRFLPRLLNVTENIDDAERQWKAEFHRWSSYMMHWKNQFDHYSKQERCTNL
Chain of Beta-secretase 1 (P56817 whole entry): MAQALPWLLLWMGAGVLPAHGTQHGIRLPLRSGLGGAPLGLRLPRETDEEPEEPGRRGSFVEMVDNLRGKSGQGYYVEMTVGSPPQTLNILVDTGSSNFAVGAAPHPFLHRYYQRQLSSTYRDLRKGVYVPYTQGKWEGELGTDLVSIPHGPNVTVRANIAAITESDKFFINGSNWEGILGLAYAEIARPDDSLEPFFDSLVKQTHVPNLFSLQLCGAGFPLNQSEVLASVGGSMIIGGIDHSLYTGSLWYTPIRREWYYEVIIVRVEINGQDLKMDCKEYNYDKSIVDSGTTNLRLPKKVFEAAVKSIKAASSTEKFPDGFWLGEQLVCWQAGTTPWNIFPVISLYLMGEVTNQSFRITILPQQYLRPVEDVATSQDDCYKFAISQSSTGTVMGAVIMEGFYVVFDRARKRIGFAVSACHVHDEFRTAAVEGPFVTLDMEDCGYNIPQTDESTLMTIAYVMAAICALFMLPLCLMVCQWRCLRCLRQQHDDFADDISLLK

As to `c1ccc(CCC2CCN(CCNC3CCN(Cc4ccccc4)C3)CC2)cc1` (stereo not given), the inhibition (usually the relative decrease from the control value, in per cent) at Beta-secretase 1 was 31%; in assay [1] it was 41%; in assay [5] it was < 10%; in assay [13], 67.8%. Moreover, the Activity was determined as 18% in assay [2]; 11% in assay [3]; 2% in assay [4]; 16% in assay [6]; 13% in assay [7]; 1% in assay [9]. Moreover, the Activity in assay [10] worked out at 6%; in assay [11] it was 9%; in assay [12], 3%; in [14], 2%; in assay [15], 12%; in assay [16], 8%. For the same molecule, the Activity in [17] turned out to be 12%; in assay [18], 24%; in assay [19] it was 33%; in [20], 45%; in assay [21], 29%; in [22], 3%. Moreover, the outcome in assay [8] was Active. Further, the half-inhibitory concentration (IC50) (usually the concentration that gives 50% inhibition) on Cholinesterase is 7.39 µM.

For the molecule `c1ccc(CN2CCC(NCCN3CCCC(c4ccccc4)C3)C2)cc1` (stereo not given), the inhibition is 25% at Beta-secretase 1 and 40.8% in [5]. Also, the Activity came to 38% in [2]; 34% in [3]; 11% in [4]; 39% in assay [6]; 36% in [7]; 15% in assay [9]. The Activity in assay [10] was found to be 22%; in [11] it was 25%; in assay [12], 54%; in assay [14], 13%; in assay [15], 27%; in assay [16], 14%. For the same molecule, the Activity in assay [17] was found to be 24%; in assay [18], 47%; in assay [19], 59%; in assay [20], 96%; in assay [21], 85%; in assay [22] it was 15%. Besides, the result in [8] was Active. Also, the midpoint of inhibition against Cholinesterase, the IC50, lay at 2.39 µM.

Turning to `c1ccc(CN2CCN(CCNC3CCN(Cc4ccccc4)C3)CC2)cc1` (stereo not given), the inhibition was 13.6% against Beta-secretase 1; 37.9% in assay [1]; < 10% in [5]; 19.2% in assay [23]; 60.6% in assay [13]; 36.7% in assay [24]. Moreover, the Activity amounted to 43% in [2]; 45% in assay [3]; 9% in assay [4]; 51% in assay [6]; 48% in assay [7]; 17% in assay [9]. In addition, the Activity in assay [10] came to 27%; in [11], 30%; in assay [12], 54%; in assay [14] it was 13%; in assay [15], 36%; in assay [16] it was 18%. For the same molecule, the Activity was 26% in assay [17]; 50% in assay [18]; 58% in assay [19]; 93% in assay [20]; 84% in assay [21]; 15% in assay [22]. Further, in assay [8], the outcome was Active.

On to `c1ccc(CC2CCN(CCNC3CCN(Cc4ccccc4)C3)CC2)cc1` (stereo not given), for which the inhibition was < 10% against Beta-secretase 1, 36.6% in [1], 21.2% in assay [5] and 61% in assay [13]. For the same molecule, the Activity was found to be 17% in assay [2]; 13% in assay [3]; 1% in assay [4]; 22% in assay [6]; 20% in [7]; 6% in [9]. For the same molecule, the Activity in [10] was 11%; in assay [11] it was 13%; in assay [12] it was 21%; in assay [14] it was 2%; in assay [15], 12%; in [16], 9%. In addition, the Activity in assay [17] is 11%; in [18] it was 21%; in assay [19] it was 27%; in [20], 55%; in [21], 43%; in assay [22] it was 3%. For the same molecule, the outcome in assay [8] was Active. Moreover, at Cholinesterase, it took 0.62 µM to reach half-maximal inhibition (IC50).

As for `c1ccc(CCC2CCCN(CCNC3CCN(Cc4ccccc4)C3)C2)cc1` (stereo not given), the inhibition at Beta-secretase 1 was determined as 42.6%; in [1] it was 41.3%; in assay [5], 38.5%; in assay [13] it was 57.2%. Also, the Activity in assay [2] came to 25%; in assay [3] it was 9%; in assay [4] it was 4%; in assay [6], 11%; in [7] it was 9%; in assay [9], 2%. For the same molecule, the Activity was 3% in assay [10]; 4% in assay [11]; 33% in assay [12]; 6% in assay [14]; 18% in assay [15]; 12% in [16]. In addition, the Activity in assay [17] came out at 12%; in assay [18] it was 26%; in [19] it was 36%; in [20] it was 76%; in assay [21] it was 60%; in [22], 7%. For the same molecule, the result in [8] was Active. The molecule also had an IC50 on Cholinesterase of 3.26 µM.

Take `O=C(CN1CCC(Cc2ccccc2)CC1)NC1CCN(Cc2ccccc2)C1` (stereo not given): the inhibition was 55.6% at Beta-secretase 1; 35% in [1]; < 10% in assay [5]; 22.1% in [23]; 66.8% in assay [13]; 36.1% in [24]. The Activity in assay [2] is 10%; in assay [3], 5%; in assay [4], 5%; in [6], 8%; in assay [7], 6%; in assay [9], 2%. For the same molecule, the Activity came to 5% in assay [10]; 6% in assay [11]; 11% in assay [12]; 16% in assay [14]; 9% in assay [15]; 7% in assay [16]. The Activity was found to be 8% in [17]; 12% in [18]; 14% in assay [19]; 27% in [20]; 20% in [21]; 4% in assay [22].

On to `c1ccc(CC2CCCN(CCNC3CCN(Cc4ccccc4)C3)C2)cc1` (stereo not given), for which the inhibition at Beta-secretase 1 stood at 24.1%; in [5], 29.9%. For the same molecule, the Activity in assay [2] was determined as 5%; in assay [3], 30%; in [4], 7%; in assay [6] it was 35%; in assay [7], 32%; in [9], 24%. Besides, the Activity in assay [10] worked out at 28%; in assay [11] it was 30%; in [12], 49%; in [14] it was 10%; in assay [15], 14%; in assay [16], 21%. Moreover, the Activity came to 18% in [17]; 40% in assay [18]; 53% in assay [19]; 94% in [20]; 80% in [21]; 10% in assay [22]. For the same molecule, in assay [8], the result was Active. Also, 1.94 µM corresponded to half-maximal inhibition at Cholinesterase (IC50).
